One assay concerns MT4. Kind of assay: Tested for 50% protection of MT-4 cells from HIV infection. Format: functional.
For assay [1], the system named is ATH-8 cell line. Kind of assay: Compound was tested for % Protection of ATH8 cells from HIV infection by 2 pM concentration of nucleoside. It counts as functional, Homo sapiens.
For assay [2], the system named is ATH-8 cell line. Kind of assay: Compound was tested for % Protection of ATH8 cells from HIV infection by 2 pM concentration of nucleoside; inactive. It counts as functional, cell-based. The conditions noted are these: Homo sapiens.

Values joined by “and” are separate entries in the source; they are usually repeats but may differ in a detail not shown here. Identical values can stand only once. Active and inactive are the calls of the source. The rule behind the calls is not given here.

Turning to `Cc1c(Sc2ccccc2[N+](=O)[O-])n(COCCO)c(=O)[nH]c1=O`, the “Log 1/C” value in the assay on MT4 was found to be 3.85.

On to `CCc1cccc(Sc2c(C)c(=O)[nH]c(=O)n2COCCO)c1`, for which, in the assay on MT4, the “Log 1/C” value is 5.57.

With `Nc1nc(Cl)nc2c1ncn2C1CCC(CO)O1` (stereo unspecified), the Log in the assay on ATH-8 cell line [1] is given as 0%.

As to `C=CCc1c(Sc2ccccc2)n(COCCO)c(=O)[nH]c1=O`, the “Log 1/C” value in the assay with MT4 is listed as 5.6.

On to `Cc1c(Sc2cccc([N+](=O)[O-])c2)n(COCCO)c(=O)[nH]c1=O`, for which the “Log 1/C” value with MT4 was found to be 4.47.

In the case of `CCc1c(Sc2cc(C)cc(C)c2)n(COCCO)c(=S)[nH]c1=O`, the “Log 1/C” value with MT4 is listed as 8.11.

`CCc1c(Sc2cc(Cl)cc(Cl)c2)n(COCCO)c(=O)[nH]c1=O`: the “Log 1/C” value in the assay with MT4 came to 7.85.

Turning to `COC(=O)c1cccc(Sc2c(C)c(=O)[nH]c(=O)n2COCCO)c1`, in the assay on MT4, the “Log 1/C” value is 5.1.

Consider `Cc1cccc(Sc2c(C)c(=O)[nH]c(=O)n2COCCO)c1`, for which the “Log 1/C” value in the assay on MT4 is 5.59.

`CCc1c(Sc2ccccc2)n(COCCO)c(=O)[nH]c1=O`: in the assay with MT4, the “Log 1/C” value is 6.92 and 6.96.

Regarding `Cc1cc(C)cc(Sc2c(C)c(=O)[nH]c(=S)n2COCCO)c1`, in the assay with MT4, the “Log 1/C” value was found to be 6.66.

On to `CC(C)c1c(Sc2ccccc2)n(COCCO)c(=S)[nH]c1=O`, for which the “Log 1/C” value in the assay on MT4 was 7.23.

Take `Cc1cc(C)cc(Sc2c(C(C)C)c(=O)[nH]c(=S)n2COCCO)c1`: the “Log 1/C” value in the assay on MT4 stood at 8.3.

Take `COc1ccccc1Sc1c(C)c(=O)[nH]c(=O)n1COCCO`: in the assay with MT4, the “Log 1/C” value stood at 4.72.

As to `COCc1cccc(Sc2c(C)c(=O)[nH]c(=O)n2COCCO)c1`, the “Log 1/C” value in the assay on MT4 was 5.14.

`Cc1c(Sc2cccc(F)c2)n(COCCO)c(=O)[nH]c1=O`: the “Log 1/C” value with MT4 was found to be 5.48.

Consider `CCc1c(Sc2cc(Cl)cc(Cl)c2)n(COCCO)c(=S)[nH]c1=O`, for which, in the assay on MT4, the “Log 1/C” value came out at 7.37.

Regarding `OCC1CCC(n2cnc3c(S)ncnc32)O1` (stereo unspecified), the Log entry in the assay on ATH-8 cell line [2] was “inactive”.

Consider `CC(C)c1c(Sc2ccccc2)n(COCCO)c(=O)[nH]c1=O`, for which the “Log 1/C” value with MT4 turned out to be 7.2.

For `Cc1c(Sc2cccc(Cl)c2)n(COCCO)c(=O)[nH]c1=O`, the “Log 1/C” value in the assay on MT4 is given as 4.89.

On to `Cc1c(Sc2cccc(I)c2)n(COCCO)c(=O)[nH]c1=O`, for which the “Log 1/C” value with MT4 was 5.

As to `Cc1c(Sc2cccc(C#N)c2)n(COCCO)c(=O)[nH]c1=O`, in the assay on MT4, the “Log 1/C” value worked out at 5.

With `Cc1c(Sc2cccc(Br)c2)n(COCCO)c(=O)[nH]c1=O`, the “Log 1/C” value in the assay with MT4 worked out at 5.24.

As to `COc1cccc(Sc2c(C)c(=O)[nH]c(=O)n2COCCO)c1`, in the assay on MT4, the “Log 1/C” value is listed as 4.66.

`CCCc1c(Sc2ccccc2)n(COCCO)c(=S)[nH]c1=O`: the “Log 1/C” value in the assay with MT4 was found to be 5.

As to `Cc1c(Sc2cccc(C(C)(C)C)c2)n(COCCO)c(=O)[nH]c1=O`, the “Log 1/C” value with MT4 is 4.92.

With `CCCc1c(Sc2ccccc2)n(COCCO)c(=O)[nH]c1=O`, in the assay on MT4, the “Log 1/C” value is 5.47.

Take `Cc1c(Sc2cccc(O)c2)n(COCCO)c(=O)[nH]c1=O`: the “Log 1/C” value in the assay with MT4 was determined as 4.09.

Regarding `Cc1ccc(Sc2c(C)c(=O)[nH]c(=O)n2COCCO)cc1`, the “Log 1/C” value in the assay with MT4 was found to be 3.66.

On to `Cc1c(Sc2cccc(C(F)(F)F)c2)n(COCCO)c(=O)[nH]c1=O`, for which the “Log 1/C” value in the assay with MT4 is on record as 4.35.

As for `Cc1ccccc1Sc1c(C)c(=O)[nH]c(=O)n1COCCO`, the “Log 1/C” value with MT4 is given as 4.15.

The values above are taken from ChEMBL document CHEMBL1150029, “QSAR of HIV inhibitors” (Bioorg Med Chem Lett, 1992).
